# According to PMC10872706 (The FEBS journal, 2023):
# Where “and” joins values, the source holds several entries; their conditions need not be identical. Identical values can stand only once. Like-named read-outs stand apart in the source and are kept apart here.
# Experiments:
# E. coli PdxI [1] = target: T1, E. coli PdxI (Escherichia coli, UniProt P25906); test: Reactions catalysed by PdxI, discontinuous assay with HPLC quantification; format: biochemical
# T1 sequence (P25906 1-286): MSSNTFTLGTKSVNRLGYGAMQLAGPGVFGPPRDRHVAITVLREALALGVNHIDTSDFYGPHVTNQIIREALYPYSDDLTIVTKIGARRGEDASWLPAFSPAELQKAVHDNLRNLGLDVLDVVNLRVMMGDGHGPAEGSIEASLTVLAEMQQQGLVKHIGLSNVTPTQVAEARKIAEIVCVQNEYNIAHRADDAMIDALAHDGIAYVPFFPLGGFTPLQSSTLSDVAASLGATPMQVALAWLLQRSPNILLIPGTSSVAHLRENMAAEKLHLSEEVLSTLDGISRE
# E. coli PdxI [2] = target: T1, E. coli PdxI; test: Differential scanning fluorimetry; format: binding; settings: for effect on thermal stability (Tm) when added alone: vitamers 100 μM, NAD+ or NADH 400 μM; for effect on thermal stability (Tm) when added alone / Kd: 2 μM PdxI; for increase of thermal stability: increasing concentrations of dinucleotide; for Kd: read-out: apparent dissociation constant, from changes of Tm as a function of NADP(H) concentration, 20 mM KPi pH 7.3; for further change of Tm on adding vitamer to pre-incubated PdxI and dinucleotide: 200 μM vitamer, PL added to PdxI-NAD(P)+, PN to PdxI-NAD(P)H
# E. coli PdxI [3] = target: T1, E. coli PdxI; test: Spectrophotometric kinetic characterisation of PdxI; settings: for type of product inhibition with respect to NADPH: NADPH varied, PL fixed at 38 μM
# E. coli PdxI [4] = target: T1, E. coli PdxI; test: Isothermal titration calorimetry; format: binding
# [5] = test system: E. coli BW25113 pdxI knock out strain; format: cell-based, Escherichia coli; settings: for beneficial effect of low concentrations on growth: low concentrations in M9 medium
# [6] = test system: E. coli BW25113 wild type; format: cell-based, Escherichia coli
# [7] = test system: E. coli BW25113 pdxI knock out strain; format: cell-based, Escherichia coli
# PdxK = settings: cited from earlier work
# [8] = test system: E. coli BW25113 wild type; test: B6 vitamer levels in cell extracts by HPLC, wild type; format: cell-based, Escherichia coli
# [9] = test system: E. coli pdxK, pdxY, pdxKY knock out strains; format: cell-based, Escherichia coli; settings: M9 medium, all these strains
# E. coli BW25113 cells = test: RT-qPCR relative expression of vitamin B6 metabolism genes; format: cell-based, Escherichia coli; settings: 0.1 mM vitamer in M9, relative to M9 = 100%; for Expression level of pdxI: (*) P < 0.01
# E. coli PdxI [10] = target: T1, E. coli PdxI; settings: in vitro; cited from earlier work
# [11] = ligand alone titrated into PdxI
# [12] = ligand alone titrated into PdxI (binary complex)
# [13] = ligand alone titrated into PdxI, 20°C, pH 7.4, NB = non-binding ligand
# [14] = medium supplemented with 1.5 mM PL
# [15] = PL added to pre-incubated mixture of PdxI and NADPH (ternary complex)
# [16] = medium supplemented with 0.1 mM PN
structure (smiles),measurement,setting,value
NC(=O)C1=CN([C@@H]2O[C@H](COP(=O)(O)OP(=O)(O)OC[C@H]3O[C@@H](n4cnc5c(N)ncnc54)[C@H](O)[C@@H]3O)[C@@H](O)[C@H]2O)C=CC1 [NADH],reaction rate with PL and NADH relative to that with NADPH,"E. coli PdxI [1]; 200 μM PL, 400 μM dinucleotide",10 times slower
same,effect on thermal stability (Tm) when added alone,E. coli PdxI [2],no effect
"NC(=O)C1=CN([C@@H]2O[C@H](COP(=O)(O)OP(=O)(O)OC[C@H]3O[C@@H](n4cnc5c(N)ncnc54)[C@H](OP(=O)(O)O)[C@@H]3O)[C@@H](O)[C@H]2O)C=CC1 [NADPH, reduced nicotinamide adenine dinucleotide phosphate]",Km,"E. coli PdxI [3]; PL reduction to PN by NADPH, 37 °C, 20 mM KPi pH 7.3, 0.05 μM PdxI",12 ± 4 µM
same,N value,E. coli PdxI [4]; [11],1.13 ± 0.05
same,ΔH,E. coli PdxI [4]; [12],-2.964 ± 0.0335 kcal/mol
same,ΔS,E. coli PdxI [4]; [12],−18 ± 1 J mol^−1/deg
same,Kd,E. coli PdxI [4]; [13],4.2 ± 0.35 µM
same,increase of thermal stability,E. coli PdxI [2],up to 9 °C
same,Kd,E. coli PdxI [2],81 ± 16 µM
"NC(=O)c1ccc[n+]([C@@H]2O[C@H](COP(=O)([O-])OP(=O)(O)OC[C@H]3O[C@@H](n4cnc5c(N)ncnc54)[C@H](OP(=O)(O)O)[C@@H]3O)[C@@H](O)[C@H]2O)c1 [NADP^+, oxidised nicotinamide adenine dinucleotide phosphate]",type of product inhibition with respect to NADPH,E. coli PdxI [3],competitive inhibitor
same,N value,E. coli PdxI [4]; [11],0.99 ± 0.09
same,ΔH,E. coli PdxI [4]; [12],-5.16 ± 0.134 kcal/mol
same,ΔS,E. coli PdxI [4]; [12],−54 ± 2 J mol^−1/deg
same,Kd,E. coli PdxI [4]; [13],46.3 ± 1.97 µM
same,increase of thermal stability,E. coli PdxI [2],up to 9 °C
same,Kd,E. coli PdxI [2],856 ± 490 µM
NC(=O)c1ccc[n+]([C@@H]2O[C@H](COP(=O)([O-])OP(=O)(O)OC[C@H]3O[C@@H](n4cnc5c(N)ncnc54)[C@H](O)[C@@H]3O)[C@@H](O)[C@H]2O)c1 [NAD^+],effect on thermal stability (Tm) when added alone,E. coli PdxI [2],no effect
"Cc1ncc(CO)c(C=O)c1O [PL, pyridoxal]",effect on bacterial growth,[5]; 1 mM in M9 medium,toxicity
same,effect on bacterial growth,[5]; 2 mM in M9 medium,nearly arrested
same,beneficial effect of low concentrations on growth,[5],not visible
same,effect on growth,[6]; up to 0.1 mM in M9 medium,beneficial
same,effect on growth,[6]; up to 1 mM in M9 medium,abolish this beneficial effect
same,increase of PL levels,[7]; [14],about 3400 fold
same,kcat of PdxK,PdxK; PL as substrate,2.3 s⁻¹
same,Km,PdxK; read-out: KM for PL of PdxK,100 µM
same,increase of PL levels,[8]; [14],about 800 fold
same,concentration at which PL toxicity is observed,[9],≥ 1400 µM
same,PL converted into PN at equilibrium,"E. coli PdxI [1]; 200 μM PL, 400 μM NADH, 0.2 μM PdxI",98.3 ± 2.6%
same,PL converted into PN at equilibrium,"E. coli PdxI [1]; 200 μM PL, 400 μM NADPH, 0.2 μM PdxI",96 ± 1.7%
same,Expression level of pdxB,E. coli BW25113 cells,97%
same,Expression level of pdxH,E. coli BW25113 cells,110%
same,Expression level of pdxJ,E. coli BW25113 cells,86%
same,Expression level of pdxK,E. coli BW25113 cells,105%
same,Expression level of pdxY,E. coli BW25113 cells,118%
same,Expression level of ybhA,E. coli BW25113 cells,110%
same,Expression level of pdxI,E. coli BW25113 cells,134% (*)
same,Kd,E. coli PdxI [4],0.024 ± 0.01 µM
same,N value,E. coli PdxI [4]; PL added to pre-incubated 1:1 mixture of PdxI and NADPH,0.61 and 0.61 ± 0.02
same,ΔH,E. coli PdxI [4]; [15],-0.884 ± 0.0359 kcal/mol
same,ΔS,E. coli PdxI [4]; [15],22 ± 1 J mol^−1/deg
same,further change of Tm on adding vitamer to pre-incubated PdxI and dinucleotide,E. coli PdxI [2],did not further increase Tm
same,effect on thermal stability (Tm) when added alone,E. coli PdxI [2],no effect
"Cc1ncc(COP(=O)(O)O)c(C=O)c1O [PLP, Pyridoxal 5’-phosphate]",Km,E. coli PdxI [3]; PLP reduction to PNP by NADPH,> 1200 µM
same,conversion of PLP into PNP,"E. coli PdxI [1]; 200 μM PLP, 400 μM NADPH, 0.2 μM PdxI",apparently complete
same,activity of PdxI with the substrate,E. coli PdxI [10],no detectable activity
same,effect on thermal stability (Tm) when added alone,E. coli PdxI [2],no effect
"Cc1ncc(CO)c(CN)c1O [PM, pyridoxamine]",conversion of PM to PL,E. coli PdxI [1]; NADP+ as electron acceptor,could not be detected
same,activity of PdxI with the substrate,E. coli PdxI [10],no detectable activity
"Cc1ncc(CO)c(CO)c1O [PN, pyridoxine]",beneficial effect of low concentrations on growth,[5],not visible
same,effect on growth,[6]; up to 1 mM in M9 medium,beneficial effect
same,rise of PLP levels,[7]; [16],1.8 fold
same,type of product inhibition with respect to NADPH,E. coli PdxI [3],mixed inhibition
same,rise of PLP levels,[8]; [16],1.5 fold
same,PN converted to PL (reverse reaction),"E. coli PdxI [1]; 200 μM PN, 400 μM NADP+, 1 μM PdxI",5 ± 1.3%
same,Expression level of pdxB,E. coli BW25113 cells,103%
same,Expression level of pdxH,E. coli BW25113 cells,95%
same,Expression level of pdxJ,E. coli BW25113 cells,88%
same,Expression level of pdxK,E. coli BW25113 cells,107%
same,Expression level of pdxY,E. coli BW25113 cells,115%
same,Expression level of ybhA,E. coli BW25113 cells,108%
same,Expression level of pdxI,E. coli BW25113 cells,98%
same,further change of Tm on adding vitamer to pre-incubated PdxI and dinucleotide,E. coli PdxI [2],did not further increase Tm
same,effect on thermal stability (Tm) when added alone,E. coli PdxI [2],no effect
